Patent publication US11596611B2, “Hepatitis B antiviral agents” (ENANTA PHARMACEUTICALS, INC., priority 2017, dated 2023)

Experiments:
HBV = test: HepAD38 antiviral assay: reduction of viral product accumulation (virion DNA by qPCR, HBsAg or HBeAg by ELISA); assay type: cell-based, hepatitis B virus; settings: Hepatitis B virus, 120 h; HepAD38 cells, five days after compound addition; 50% reduction of viral product vs no drug controls; read-out: HepAD38 EC50
Procedure, shortened: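 Tetracycline-free HepAD38 cells exposed to compound (DMSO stock diluted 1:200) for 5 days, or 8 days with media and compound refreshed on d2 and d5. Virion DNA quantified by qPCR after lysis; HBsAg or HBeAg measured by ELISA on diluted samples.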

[1] = Compound toxicity by ATPLite (total ATP levels); assay type: cell-based; settings: human, three days after compound addition, 50% reduction of total ATP
Experimental: Methods: HepAD38 cells are maintained as previously reported (Ladner et al, Antimicrob. Agents Chemother. 1997, […], 1715). Briefly, cells are passaged upon attaining confluency in DMEM/F12 media in the presence of 10% FBS, Penn/Strep, 250 μg/mL G418, and 1 ug/ml tetracycline. Novel compounds are screened by first washing cells three times with PBS to remove tetracycline, and plating in 96 well plates at 35,000 cells/well. Compounds dissolved in DMSO are then diluted 1:200 into wells containing cells. Five days after compound addition, material is harvested for analysis. For an extended 8 days analysis, cells are plated and treated as described above, but media and compound are refreshed on d2 and d5 post initial treatment.
Compound toxicity is evaluated by seeding cells at 15,000 cells/well and treating with compound as described above.

Row | Compound | EC50 (HBV) [nM] | CC50 at 3 days ([1]; numeric bounds) [nM] | CC50 at 3 days ([1]; class symbols) [nM]
1 | O=C(C[C@]1(O)C2CCC1C[C@@H](S(=O)(=O)c1cc(C(=O)Nc3cc(F)c(F)c(F)c3)ccc1Cl)C2)N[C@@H]1CCOC1 [Example 73] | < 104 | > 6250 | –
2 | C[C@@H](O)[C@H](O)COC[C@]1(O)C2CCC1C[C@@H](S(=O)(=O)c1cc(C(=O)Nc3cc(F)c(F)c(F)c3)ccc1Cl)C2 (single isomer, unassigned) [Example 163] | < 104 | – | > 25000
3 | [N-]=[N+]=NCC(O)[C@]1(O)C2CCC1C[C@@H](S(=O)(=O)c1cc(C(=O)Nc3cc(F)c(F)c(F)c3)ccc1Cl)C2 (mixture of isomers) [Example 11] | < 104 | > 6250 | –
4 | C[C@@H]1CN([C@H]2C3CCC2C[C@H](S(=O)(=O)c2cc(C(=O)Nc4ccc(F)c(F)c4)ccc2Cl)C3)C(=O)O1 [Example 344] | < 104 | – | > 25000
5 | C[C@@H](O)[C@H](O)COC[C@]1(O)C2CCC1C[C@@H](S(=O)(=O)c1cc(C(=O)Nc3cc(F)c(F)c(F)c3)ccc1Cl)C2 [Example 36] | < 104 | – | > 25000
6 | CC=CCNC(=O)C[C@]1(O)C2CCC1C[C@@H](S(=O)(=O)c1cc(C(=O)Nc3cc(F)c(F)c(F)c3)ccc1Cl)C2 [Example 53] | < 104 | > 6250 | –
7 | O=C(Nc1ccc(F)c(F)c1)c1ccc(Cl)c(S(=O)(=O)[C@@H]2CC3CC[C@@H](C2)[C@@]3(O)C(O)c2cnoc2)c1 (some centres unmarked) [Example 303] | < 104 | – | > 25000
8 | O=C(Nc1cc(F)c(F)c(F)c1)c1ccc(Cl)c(S(=O)(=O)[C@H]2CC3CCC(C2)[C@]3(O)COC(CCO)CCO)c1 [Example 61] | < 104 | > 6250 | –
9 | C[C@@H](O)[C@@H](O)[C@]1(O)C2CCC1C[C@@H](S(=O)(=O)c1cc(C(=O)Nc3ccc(F)c(F)c3)ccc1Cl)C2 (mixture of isomers) [Example 172] | < 104 | – | > 25000
10 | O=C(Nc1cc(F)c(F)c(F)c1)c1ccc(Cl)c(S(=O)(=O)[C@H]2CC3CCC(C2)[C@]3(O)CNC(=O)C2CCOCC2)c1 [Example 89] | < 104 | > 6250 | –
11 | C[C@@H](O)COC[C@]1(O)C2CCC1C[C@@H](S(=O)(=O)c1cc(C(=O)Nc3cc(F)c(F)c(F)c3)ccc1Cl)C2 (single isomer, unassigned) [Example 130] | < 104 | > 12500 | –
12 | O=C(Nc1ccc(F)c(F)c1)c1ccc(Cl)c(S(=O)(=O)[C@H]2CC3CCC(C2)[C@]3(O)[C@H](O)c2ccccn2)c1 (single isomer, unassigned) [Example 284b] | < 104 | – | > 25000
13 | C[C@H](O)C(=O)NC[C@]1(O)C2CCC1C[C@@H](S(=O)(=O)c1cc(C(=O)Nc3cc(F)c(F)c(F)c3)ccc1Cl)C2 [Example 13] | < 104 | > 6250 | –
14 | O=C(NC[C@@]1(O)C2CC[C@H]1C[C@H](S(=O)(=O)c1cc(C(=O)Nc3cc(F)c(F)c(F)c3)ccc1Cl)C2)C1=CCCC1 [Example 41] | < 104 | > 6250 | –
15 | C[C@H](O)CNC(=O)C[C@]1(O)C2CCC1C[C@@H](S(=O)(=O)c1cc(C(=O)Nc3cc(F)c(F)c(F)c3)ccc1Cl)C2 [Example 112] | < 104 | > 6250 | –
16 | CC(C)(O)CNC(=O)C[C@]1(O)C2CCC1C[C@@H](S(=O)(=O)c1cc(C(=O)Nc3cc(F)c(F)c(F)c3)ccc1Cl)C2 [Example 71] | < 104 | > 3000 | –
17 | Cn1cc(C(O)[C@]2(O)C3CCC2C[C@@H](S(=O)(=O)c2cc(C(=O)Nc4ccc(F)c(F)c4)ccc2Cl)C3)cn1 (some centres unmarked) [Example 289] | < 104 | – | > 25000
18 | CC(=O)N(C[C@@H](C)O)C[C@]1(O)C2CCC1C[C@@H](S(=O)(=O)c1cc(C(=O)Nc3cc(F)c(F)c(F)c3)ccc1Cl)C2 [Example 126] | < 104 | > 6250 | –
19 | [2H]c1cc(F)c(F)c([2H])c1NC(=O)c1ccc(Cl)c(S(=O)(=O)[C@@H]2C([2H])([2H])C3CC[C@@H](C2([2H])[2H])[C@@]3(O)[C@@H](O)[C@H](C)O)c1 [Example 338] | < 104 | – | > 25000
20 | C[C@@H](O)CNC(=O)C[C@]1(O)C2CCC1C[C@@H](S(=O)(=O)c1cc(C(=O)Nc3ccc(F)c(F)c3)ccc1Cl)C2 [Example 186] | < 104 | > 12500 | –

Row | Compound | EC50 (HBV) [nM] | CC50 at 3 days ([1]; numeric bounds) [nM] | CC50 at 3 days ([1]; class symbols) [nM]
21 | CC(O)CNC(=O)C[C@]1(O)C2CCC1C[C@@H](S(=O)(=O)c1cc(C(=O)Nc3cc(F)c(F)c(F)c3)ccc1Cl)C2 (some centres unmarked) [Example 54] | < 104 | – | > 25000
22 | CC(=O)[C@@H](O)[C@@]1(O)C2CC[C@H]1C[C@H](S(=O)(=O)c1cc(C(=O)Nc3ccc(F)c(F)c3)ccc1Cl)C2 [Example 331] | < 104 | – | > 25000
23 | CC(C)(O)[C@@H](O)[C@@]1(O)C2CC[C@H]1C[C@H](S(=O)(=O)c1cc(C(=O)Nc3ccc(F)c(F)c3)ccc1Cl)C2 [Example 332] | < 104 | – | > 25000
24 | O=C(Nc1ccc(F)c(F)c1)c1ccc(Cl)c(S(=O)(=O)[C@H]2CC3CCC(C2)[C@]3(O)C(O)c2ccc(F)cn2)c1 (some centres unmarked) [Example 291] | < 104 | – | > 25000
25 | O=C(C[C@]1(O)C2CCC1C[C@@H](S(=O)(=O)c1cc(C(=O)Nc3cc(F)c(F)c(F)c3)ccc1Cl)C2)NC1(CO)CC1 [Example 117] | < 104 | > 6250 | –
26 | O=C(Nc1ccc(F)c(F)c1)c1ccc(Cl)c(S(=O)(=O)[C@H]2CC3CCC(C2)[C@]3(O)C(O)c2ncco2)c1 (some centres unmarked) [Example 290] | < 104 | – | > 25000
27 | C[C@@H](O)CNC(=O)C[C@]1(O)C2CCC1C[C@@H](S(=O)(=O)c1cc(C(=O)Nc3ccc(F)c(C(F)F)c3)ccc1Cl)C2 [Example 155] | < 104 | – | > 25000
28 | O=C(Nc1cc(F)c(F)c(F)c1)c1ccc(Cl)c(S(=O)(=O)[C@H]2CC3CCC(C2)[C@]3(O)CC(=O)N2CC(O)C2)c1 [Example 92] | < 104 | > 6250 | –
29 | C[C@H](O)[C@@H](O)[C@]1(O)C2CCC1C[C@@H](S(=O)(=O)c1cc(C(=O)Nc3cc(F)c(F)c(F)c3)ccc1Cl)C2 (racemic) [Example 5] | < 104 | > 3000 | –
30 | O=C(Nc1cc(F)c(F)c(F)c1)c1ccc(Cl)c(S(=O)(=O)[C@H]2C3CC[C@H]2C[C@](O)(CCCO)C3)c1 [Example 9] | < 104 | > 6250 | –
31 | C=CCNC(=O)C[C@]1(O)C2CCC1C[C@@H](S(=O)(=O)c1cc(C(=O)Nc3cc(F)c(F)c(F)c3)ccc1Cl)C2 [Example 58] | < 104 | > 12500 | –
32 | C[C@@H](O)CNC(=O)C[C@]1(O)C2CCC1C[C@@H](S(=O)(=O)c1cc(C(=O)Nc3cc(F)c(F)c(F)c3)ccc1Cl)C2 [Example 113] | < 104 | > 6250 | –
33 | C[C@H](O)[C@@H](O)COC[C@]1(O)C2CCC1C[C@@H](S(=O)(=O)c1cc(C(=O)Nc3ccc(F)c(F)c3)ccc1Cl)C2 [Example 179] | < 104 | – | > 25000
34 | C=CCS(=O)(=O)NC[C@]1(O)C2CCC1C[C@@H](S(=O)(=O)c1cc(C(=O)Nc3cc(F)c(F)c(F)c3)ccc1Cl)C2 [Example 39] | < 104 | > 6250 | –
35 | O=C(Nc1ccc(F)c(C(F)F)c1)c1ccc(Cl)c(S(=O)(=O)[C@H]2CC3CCC(C2)[C@]3(O)CO)c1 [Example 151] | < 104 | – | > 25000
36 | C[C@H](O)COC[C@]1(O)C2CCC1C[C@@H](S(=O)(=O)c1cc(C(=O)Nc3cc(F)c(F)c(F)c3)ccc1Cl)C2 [Example 131] | < 104 | > 12500 | –
37 | O=C(Nc1ccc(F)c(F)c1)c1ccc(Cl)c(S(=O)(=O)[C@H]2CC3CCC(C2)[C@]3(O)C2CO2)c1 (some centres unmarked) [Example 308] | < 104 | – | > 25000
38 | O=C(Nc1cc(F)c(F)c(F)c1)c1ccc(Cl)c(S(=O)(=O)[C@H]2CC3CCC(C2)[C@]3(O)CNC(=O)c2ncco2)c1 [Example 88] | < 104 | > 6250 | –
39 | CC(=O)N(C[C@H](C)O)C[C@]1(O)C2CCC1C[C@@H](S(=O)(=O)c1cc(C(=O)Nc3cc(F)c(F)c(F)c3)ccc1Cl)C2 [Example 125] | < 104 | > 6250 | –
40 | C[C@@H](O)[C@@H](O)[C@]1(O)C2CCC1C[C@@H](S(=O)(=O)c1cc(C(=O)Nc3cc(F)c(F)c(F)c3)ccc1Cl)C2 (racemic) [Example 4] | < 104 | > 12500 | –
